PubChem BioAssay AID2060605 (Molecular Pharmacology Branch, DTP, NCI, 2025)

System: 947758-054-R-J2-PDC spheroid growth, percent test/control
Assay: Anticancer human tumor 947758-054-R-J2-PDC patient-derived colon adenocarcinoma cell line growth inhibition [CLK]
Settings: spheroids with HUVEC and MSC; for IC50: curve of first compound; for viability, T/C: stronger effect = lower value
In short: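 Patient-derived tumor cells grown as complex spheroids with HUVEC endothelial cells and mesenchymal stem cells, treated with drug combinations. Concentrations descend in half-log steps from near clinical Cmax, or from 10 microM if Cmax unknown.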
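Also: spheroids exposed to compounds for one week before readout.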
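For viability, T/C in this document: 100% = DMSO vehicle control wells.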

For `C=CC(=O)Nc1cc(Nc2nccc(-c3cn(C)c4ccccc34)n2)c(OC)cc1N(C)CCN(C)C` + CNC(=O)c1ccc(Nc2nc(OC3CCCC3)c3c(-c4ccc5nc(C)oc5c4)c[nH]c3n2)c(OC)c1, the IC50 (second compound 0.0316 µM) was > 300 nM, the IC50 (second compound 0.1 µM) was > 300 nM and the IC50 (second compound 0.316 µM) was 251 nM. The IC50 (second compound 1 µM) was 122 nM, the IC50 (second compound 3.16 µM) was < 0.949 nM and the IC50 (second compound 10 µM) was < 0.949 nM. The viability, T/C (second compound 0.0316 µM, first compound 0.000949 µM) was 90%, the viability, T/C (second compound 0.0316 µM, first compound 0.003 µM) was 78.9% and the viability, T/C (second compound 0.0316 µM, first compound 0.00949 µM) was 80.4%. It also gave a viability, T/C (second compound 0.0316 µM, first compound 0.03 µM) of 94.6%, a viability, T/C (second compound 0.0316 µM, first compound 0.0949 µM) of 86.2% and a viability, T/C (second compound 0.0316 µM, first compound 0.3 µM) of 64%. The viability, T/C (second compound 0.1 µM, first compound 0.000949 µM) was 102%, the viability, T/C (second compound 0.1 µM, first compound 0.003 µM) was 94.9% and the viability, T/C (second compound 0.1 µM, first compound 0.00949 µM) was 83.7%. The viability, T/C (second compound 0.1 µM, first compound 0.03 µM) was 87.9%, the viability, T/C (second compound 0.1 µM, first compound 0.0949 µM) was 78.1% and the viability, T/C (second compound 0.1 µM, first compound 0.3 µM) was 52.5%. The viability, T/C (second compound 0.316 µM, first compound 0.000949 µM) was 88.2%, the viability, T/C (second compound 0.316 µM, first compound 0.003 µM) was 81.8% and the viability, T/C (second compound 0.316 µM, first compound 0.00949 µM) was 65.8%. The viability, T/C (second compound 0.316 µM, first compound 0.03 µM) was 96.3%, the viability, T/C (second compound 0.316 µM, first compound 0.0949 µM) was 108% and the viability, T/C (second compound 0.316 µM, first compound 0.3 µM) was 43.1%. The viability, T/C (second compound 1 µM, first compound 0.000949 µM) was 70.2%, the viability, T/C (second compound 1 µM, first compound 0.003 µM) was 53.1% and the viability, T/C (second compound 1 µM, first compound 0.00949 µM) was 47.1%. The viability, T/C (second compound 1 µM, first compound 0.03 µM) was 52%, the viability, T/C (second compound 1 µM, first compound 0.0949 µM) was 62.8% and the viability, T/C (second compound 1 µM, first compound 0.3 µM) was 25.4%. For the same molecule, the viability, T/C (second compound 3.16 µM, first compound 0.000949 µM) was 48.9%, the viability, T/C (second compound 3.16 µM, first compound 0.003 µM) was 44.4% and the viability, T/C (second compound 3.16 µM, first compound 0.00949 µM) was 44.8%. The viability, T/C (second compound 3.16 µM, first compound 0.03 µM) was 44%, the viability, T/C (second compound 3.16 µM, first compound 0.0949 µM) was 39.5% and the viability, T/C (second compound 3.16 µM, first compound 0.3 µM) was 23.1%. For the same molecule, the viability, T/C (second compound 10 µM, first compound 0.000949 µM) was 39.8%, the viability, T/C (second compound 10 µM, first compound 0.003 µM) was 39.5% and the viability, T/C (second compound 10 µM, first compound 0.00949 µM) was 42.7%. For the same molecule, the viability, T/C (second compound 10 µM, first compound 0.03 µM) was 35.2%, the viability, T/C (second compound 10 µM, first compound 0.0949 µM) was 20.9% and the viability, T/C (second compound 10 µM, first compound 0.3 µM) was 18.3%.
`Nc1ccccc1NC(=O)c1ccc(CNC(=O)OCc2cccnc2)cc1` + CNC(=O)c1ccc(Nc2nc(OC3CCCC3)c3c(-c4ccc5nc(C)oc5c4)c[nH]c3n2)c(OC)c1 showed an IC50 (second compound 0.0316 µM) of 2230 nM, an IC50 (second compound 0.1 µM) of 2520 nM and an IC50 (second compound 0.316 µM) of 2510 nM. For the same molecule, the IC50 (second compound 1 µM) was 439 nM, the IC50 (second compound 3.16 µM) was < 31.6 nM and the IC50 (second compound 10 µM) was < 31.6 nM. The viability, T/C (second compound 0.0316 µM, first compound 0.0316 µM) was 89.6%, the viability, T/C (second compound 0.0316 µM, first compound 0.1 µM) was 102% and the viability, T/C (second compound 0.0316 µM, first compound 0.316 µM) was 122%. For the same molecule, the viability, T/C (second compound 0.0316 µM, first compound 1 µM) was 85.4%, the viability, T/C (second compound 0.0316 µM, first compound 3.16 µM) was 34.2% and the viability, T/C (second compound 0.0316 µM, first compound 10 µM) was 5.25%. It also gave a viability, T/C (second compound 0.1 µM, first compound 0.0316 µM) of 85.4%, a viability, T/C (second compound 0.1 µM, first compound 0.1 µM) of 106% and a viability, T/C (second compound 0.1 µM, first compound 0.316 µM) of 111%. It also gave a viability, T/C (second compound 0.1 µM, first compound 1 µM) of 116%, a viability, T/C (second compound 0.1 µM, first compound 3.16 µM) of 36.7% and a viability, T/C (second compound 0.1 µM, first compound 10 µM) of 4.57%. For the same molecule, the viability, T/C (second compound 0.316 µM, first compound 0.0316 µM) was 112%, the viability, T/C (second compound 0.316 µM, first compound 0.1 µM) was 83.5% and the viability, T/C (second compound 0.316 µM, first compound 0.316 µM) was 91.3%. For the same molecule, the viability, T/C (second compound 0.316 µM, first compound 1 µM) was 101%, the viability, T/C (second compound 0.316 µM, first compound 3.16 µM) was 38.3% and the viability, T/C (second compound 0.316 µM, first compound 10 µM) was 3.65%. The viability, T/C (second compound 1 µM, first compound 0.0316 µM) was 64.5%, the viability, T/C (second compound 1 µM, first compound 0.1 µM) was 62.7% and the viability, T/C (second compound 1 µM, first compound 0.316 µM) was 43%. The viability, T/C (second compound 1 µM, first compound 1 µM) was 48.7%, the viability, T/C (second compound 1 µM, first compound 3.16 µM) was 26.7% and the viability, T/C (second compound 1 µM, first compound 10 µM) was 1.54%. The viability, T/C (second compound 3.16 µM, first compound 0.0316 µM) was 49.2%, the viability, T/C (second compound 3.16 µM, first compound 0.1 µM) was 43.8% and the viability, T/C (second compound 3.16 µM, first compound 0.316 µM) was 44.5%. It also gave a viability, T/C (second compound 3.16 µM, first compound 1 µM) of 33.1%, a viability, T/C (second compound 3.16 µM, first compound 3.16 µM) of 16.2% and a viability, T/C (second compound 3.16 µM, first compound 10 µM) of 0.26%. It also gave a viability, T/C (second compound 10 µM, first compound 0.0316 µM) of 38.8%, a viability, T/C (second compound 10 µM, first compound 0.1 µM) of 26.8% and a viability, T/C (second compound 10 µM, first compound 0.316 µM) of 31.8%. The viability, T/C (second compound 10 µM, first compound 1 µM) was 29.2%, the viability, T/C (second compound 10 µM, first compound 3.16 µM) was 4.69% and the viability, T/C (second compound 10 µM, first compound 10 µM) was 0.52%.
